Here are results for 8 molecules from BindingDB's records for doi:10.1021/acs.jmedchem.7b01708 (Duquesne University, 2018).

Assay [1] can be described thus: Binding affinity to human FR-alpha receptor expressed in Chinese hamster RT16 cells assessed as antiproliferative activity measured as reduction in cell viability after 96 hrs in presence of folic acid by Cell-Titer Blue assay.
Assay [2] can be described thus: Binding affinity to human FR-beta receptor expressed in Chinese hamster D4 cells assessed as antiproliferative activity measured as reduction in cell viability after 96 hrs by Cell-Titer Blue assay.
A short description of assay [3]: Binding affinity to human FR-beta receptor expressed in Chinese hamster D4 cells assessed as antiproliferative activity measured as reduction in cell viability after 96 hrs in presence of folic acid by Cell-Titer Blue assay.
The nature of assay [4]: Binding affinity to human PCFT expressed in Chinese hamster R2/PCFT4 cells assessed as antiproliferative activity measured as reduction in cell viability after 96 hrs by Cell-Titer Blue assay.
The nature of assay [5]: Binding affinity to human RFC expressed in Chinese hamster PC43-10 cells assessed as antiproliferative activity measured as reduction in cell viability after 96 hrs by Cell-Titer Blue assay.
Assay [6] is described as follows: Binding affinity to human FR-alpha receptor expressed in Chinese hamster RT16 cells assessed as antiproliferative activity measured as reduction in cell viability after 96 hrs by Cell-Titer Blue assay.

A value given as a limit tells only on which side of the number the result lay.

On to `Nc1nc2[nH]c(CCC#Cc3cccc(C(=O)N[C@@H](CCC(=O)O)C(=O)O)n3)cc2c(=O)[nH]1`, for which the IC50 in assay [1], in assay [2], in assay [3], in assay [4], in assay [5] and in assay [6] was > 1000 nM in each case.
Regarding `Nc1nc2[nH]c(CCCCc3ccc(C(=O)N[C@@H](CCC(=O)O)C(=O)O)cn3)cc2c(=O)[nH]1`, the half-maximal inhibitory concentration (IC50) is > 1000 nM in assay [1]; 37 nM in assay [2]; > 1000 nM in assay [3]; > 1000 nM in assay [4]; > 1000 nM in assay [5]; 15 nM in assay [6].
Consider `Nc1nc2[nH]c(CCC#Cc3ccc(C(=O)N[C@@H](CCC(=O)O)C(=O)O)nc3)cc2c(=O)[nH]1`, for which the IC50 is > 1000 nM in assay [1]; 19 nM in assay [2]; > 1000 nM in assay [3]; > 1000 nM in assay [4]; > 1000 nM in assay [5]; 4.4 nM in assay [6].
Regarding `Nc1nc2[nH]c(CCCCc3ccc(C(=O)N[C@@H](CCC(=O)O)C(=O)O)cc3)cc2c(=O)[nH]1` [N-{4-[4-(2-Amino-4-oxo-4,7-dihydro-3H-pyrrolo[2,3-d]pyrimidin-6-yl)butyl]benzoyl}-L-glutamic Acid], the IC50 in assay [5] was > 1000 nM.
As for `C#CCC(Cc1cnc2nc(N)nc(N)c2n1)c1ccc(C(=O)N[C@@H](CCC(=O)O)C(=O)O)cc1` (stereo partly specified) [CHEBI:71223], the IC50 is > 1000 nM in assay [1], 57 nM in assay [4], 0.69 nM in assay [5] and 168 nM in assay [6].
Turning to `Nc1nc2[nH]c(CCC#Cc3ccc(C(=O)N[C@@H](CCC(=O)O)C(=O)O)cn3)cc2c(=O)[nH]1`, the IC50 in assay [1] was > 1000 nM; in assay [2], 839 nM; in assay [3], > 1000 nM; in assay [4], > 1000 nM; in assay [5] it was > 1000 nM; in assay [6], 449 nM.
`Nc1nc2[nH]c(CCCCc3cccc(C(=O)N[C@@H](CCC(=O)O)C(=O)O)n3)cc2c(=O)[nH]1`: the IC50 in assay [1] was > 1000 nM; in assay [2], > 1000 nM; in assay [3], > 1000 nM; in assay [5] it was > 1000 nM; in assay [6], 186 nM.
Regarding `Nc1nc2[nH]c(CCCCc3ccc(C(=O)N[C@@H](CCC(=O)O)C(=O)O)nc3)cc2c(=O)[nH]1`, the IC50 was 58 nM in assay [4] and > 1000 nM in assay [5].
